Test results published in patent US20250027954A1, “METHODS OF DETECTING AND TREATING CEREBRAL ANEURYSMS” (UNIVERSITY OF PITTSBURGH-OF THE COMMONWEALTH SYSTEM OF …, priority 2022, published 2025).
Entries after “also recorded” stand apart in the source; their conditions may differ.

Experiments:
[1] = tested on: murine cerebral aneurysm model; assay: Mouse intracranial aneurysm model: aneurysm formation; type: in vivo, mouse (C57BL/6); conditions: controls 57%, n=6 and 7
Procedure: Mouse intracranial aneurysm model. Murine intracranial aneurysms were created in female 8-12 week-old C57BL/6 mice (Charles River Laboratories, Wilmington, MA) following established protocols. Briefly, the left common carotid artery and the right renal artery are ligated to induce hypertension. One week later, an Alzet micro-osmotic pump model 1004 (DURECT Corp, Cupertino, CA) was implanted subdermally to deliver Angiotensin II (Bachem AG, Switzerland) at 1000 ng/kg/min; and 10 μL of 0.8% porcine elastase (Worthington Biochemical Corp, Lakewood, NJ) in normal saline was injected into the right basal cistern using stereotactic coordinates: 1.2 mm rostral of bregma, 0.7 mm lateral of midline and 5.3 mm ventral of the dorsal aspect of the skull. The animals were fed a hypertensive diet with 8% NaCl and 0.12% BAPN (TEKLAD). PBS-treated animals received […] injection of phosphate buffered saline subcutaneously every two days. […] All animal experimentation was performed under the Institutional Animal Care and Use Committee-approved protocols of the University of Pittsburgh.

[2] = tested on: cytokine expression in aneurysm-induced cerebral vasculature; assay: Mouse cytokine arrays (96 cytokines) of aneurysm-induced cerebral vasculature; type: in vivo, mouse (C57BL/6); conditions: treated aneurysmal mice vs PBS-treated aneurysmal mice or sham surgery controls; n=3 each
Procedure: Temporal analysis and comparison with pharmacologic treatment were performed.
Mouse cytokine Arrays. Raybiotech cytokine arrays C1000 (AAM-CYT-1000, Raybiotech, Peachtree Corners, GA) were used to analyze 96 cytokines in aneurysm-induced cerebral vasculature at 2 and 3 weeks (n=3 each) and compared with reparixin-, clopidogrel-treated animals, and with sham surgery animals as controls (n=2).

`COC(=O)[C@H](c1ccccc1Cl)N1CCc2sccc2C1` [clopidogrel] was tested, and the “aneurysm formation (mice that developed aneurysms)” value ([1]; 1 mg/kg clopidogrel, p<0.001) was 0% and the “effect on cytokine expression / inflammatory profile in aneurysmal mice (heatmap, FIG. 4A)” value [2] was “moderate response”.
With `CC(C)Cc1ccc([C@@H](C)C(=O)NS(C)(=O)=O)cc1` [reparixin] the “aneurysm formation (mice that developed aneurysms)” value ([1]; 10 mg/kg reparixin, p=0.0163) was 14% and the “effect on cytokine expression / inflammatory profile in aneurysmal mice (heatmap, FIG. 4A)” value [2] was “vastly attenuated inflammatory profile; also recorded: robust anti-inflammatory effects”.
